Like-named read-outs stand apart in the source and are kept apart here.
What was measured:
[1] = biological target: T1, HPV-11 E1 (Human papillomavirus 11, UniProt P04014); experiment: E1 ATPase SPA kinetic analysis (Km/Ki); assay type: biochemical, human papilloma virus
T1 construct: polyhistidine; made in house; host or cells: baculovirus-infected insect cells
Text: Polyhistidine-tagged HPV-11 E1 was expressed in baculovirus-infected insect cells and purified by Ni-affinity chromatography as described in WO 99/57283 (incorporated herein by reference).
ATPase time-courses were run at different concentrations of ATP in order to determine the kinetic parameter Km(ATP) for HPV-11 E1. Reactions were run under similar conditions in both experiments, using the procedures given in Examples 1 and 2, except that the concentration of Igepal-CA630 was 0.01% rather than 0.005% and with experiment-specific changes noted below. The E1 concentration was 2 nM and the ATP concentrations ranged from 3-75 μM (TLC) or 2-50 μM (SPA), with the MgOAc concentration equal to the ATP concentration plus 0.5 mM. Stock solutions of ATP at each concentration were obtained by diluting the highest concentration solution with buffer containing 0.5 mM MgOAc; thus a constant ratio of radiolabeled to unlabeled ATP was used for all reactions. Reaction rates were measured by taking time-points from 10 or 20 to 120 minutes. To insure initial velocity conditions, time-points giving greater than 20% conversion were not used for analysis.
Total reaction volumes were 150 μL. For each time-point, 20 μL of reaction mixture was removed and combined with 40 μL of ammonium molybdate/SPA bead mixture followed by 80 μL of CsCl/citric acid. All reactions were run in triplicate. Plates were counted after overnight incubation. At the last time-point, an additional 20 μL aliquot was removed and combined with 10 μL 0.5 M EDTA. In this case, the conversion of ATP to phosphate was quantified by TLC, and the concentration of phosphate determined by TLC was compared to the cpm from the SPA procedure, after subtraction of blanks in both cases. The relationship between phosphate concentration and cpm is linear and the slope of the line was used to convert cpm values from SPA detection to concentration of phosphate produced. Rates of phosphate production at each ATP concentration were fit by nonlinear regression to the Michaelis-Menten equation using the program Grafit (V 3.01, R. Leatherbarrow).
The γ-thio phosphate analog of ATP inhibits many ATPases by a competitive mechanism. Experimental determination of the mechanism of inhibitor action requires measuring initial velocities for a number of substrate and inhibitor concentrations. The number of data points needed (several hundred) and the precision required for this experiment mean that performing the experiment by TLC detection is much more difficult and tedious. The SPA procedure works well, however. For this experiment, ATP concentrations of 5, 10, 20 and 40 μM were used, along with inhibitor concentrations of 0, 3, 6, 12 and 24 μM. Reactions were run as described for Example 9 (SPA detection). Data were processed as above and fit by nonlinear regression to an equation for competitive inhibition using GraFit. […] The plot was generated in Excel using the fitted parameters for the lines and the experimental values for points. For comparison, the data were also fit to an equation for non-competitive inhibition (equal binding of inhibitor to enzyme and enzyme-substrate complexes). […] Because of the quality of the data obtained it is possible to observe a systematic deviation between the experimental and fitted values for this second mechanism, especially at higher inhibitor concentrations.

[2] = biological target: HPV-6a ATPase activity (HPV-6 E1) (Human papillomavirus type 6a, UniProt Q84293); experiment: E1 ATPase scintillation proximity assay, IC50 curves; assay type: biochemical, human papilloma virus; details: nonlinear regression; 1 μM ATP, 6 nM HPV-6 E1, 75 minutes, SPA detection; read-out: IC50 for inhibition of HPV-6a ATPase activity
Protocol: Radiolabeled [γ-^33P]ATP (NEN) was prepared upon receipt by diluting it 100-fold in the reaction buffer and storing it at −80° C. Material stored in this way was good for greater than one month. E1 ATPase reactions were run in a buffer consisting of 20 mM HEPES, pH 7.5, 0.05 mM EDTA and 1 mM DTT, and 0.05% Igepal CA-630 (equivalent to Nonidet P40). Volumes and concentrations given below are typical, but these can be varied somewhat with minimal effect on results, as shown in later examples. One μM ATP (Amersham Pharmacia) and 500 μM MgOAc were mixed with [γ-^33P]ATP at 100-fold dilution from the stored material (10,000 dilution from the stock), or approximately 1 nCi/μL when fresh. The actual ATP concentration contributed by [γ-^33P]ATP was approximately 1 nM; this amount could be reduced further if necessary. […]
At the desired time, 40 μL reactions were stopped by adding 20 PL of a SPA bead-AmMo mixture. […] The extent of phosphate production was then determined by scintillation counting using the TopCount (Packard). If desired, cpm can be converted to phosphate concentration by comparison of SPA results to those determined by TLC (see below) for identical reactions. […]
All solutions are made in the assay buffer described in Example 3 except that the assay buffer also contained 0.005% Igepal CA-630. […] After mixing briefly, plates were left for 90 minutes and then counted on a TopCount. […]

T1 sequence (P04014 whole entry): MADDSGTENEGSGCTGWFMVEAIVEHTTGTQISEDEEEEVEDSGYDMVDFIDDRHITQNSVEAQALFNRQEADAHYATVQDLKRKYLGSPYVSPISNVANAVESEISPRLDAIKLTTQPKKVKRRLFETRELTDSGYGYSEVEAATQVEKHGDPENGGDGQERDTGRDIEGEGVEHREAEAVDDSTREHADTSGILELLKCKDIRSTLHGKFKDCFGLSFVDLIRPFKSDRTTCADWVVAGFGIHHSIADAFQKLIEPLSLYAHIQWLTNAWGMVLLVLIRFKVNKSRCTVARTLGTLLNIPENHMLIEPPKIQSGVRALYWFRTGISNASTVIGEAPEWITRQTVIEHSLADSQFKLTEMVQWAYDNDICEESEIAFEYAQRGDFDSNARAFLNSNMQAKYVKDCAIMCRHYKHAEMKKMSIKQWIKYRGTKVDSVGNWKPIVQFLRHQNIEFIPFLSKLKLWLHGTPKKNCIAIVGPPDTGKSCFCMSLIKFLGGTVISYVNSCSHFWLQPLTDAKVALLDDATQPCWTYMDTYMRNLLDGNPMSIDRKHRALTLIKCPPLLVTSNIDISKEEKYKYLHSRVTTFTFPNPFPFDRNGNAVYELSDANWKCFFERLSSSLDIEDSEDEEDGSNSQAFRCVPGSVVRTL
HPV-6a ATPase activity (HPV-6 E1), sequence (Q84293 whole entry): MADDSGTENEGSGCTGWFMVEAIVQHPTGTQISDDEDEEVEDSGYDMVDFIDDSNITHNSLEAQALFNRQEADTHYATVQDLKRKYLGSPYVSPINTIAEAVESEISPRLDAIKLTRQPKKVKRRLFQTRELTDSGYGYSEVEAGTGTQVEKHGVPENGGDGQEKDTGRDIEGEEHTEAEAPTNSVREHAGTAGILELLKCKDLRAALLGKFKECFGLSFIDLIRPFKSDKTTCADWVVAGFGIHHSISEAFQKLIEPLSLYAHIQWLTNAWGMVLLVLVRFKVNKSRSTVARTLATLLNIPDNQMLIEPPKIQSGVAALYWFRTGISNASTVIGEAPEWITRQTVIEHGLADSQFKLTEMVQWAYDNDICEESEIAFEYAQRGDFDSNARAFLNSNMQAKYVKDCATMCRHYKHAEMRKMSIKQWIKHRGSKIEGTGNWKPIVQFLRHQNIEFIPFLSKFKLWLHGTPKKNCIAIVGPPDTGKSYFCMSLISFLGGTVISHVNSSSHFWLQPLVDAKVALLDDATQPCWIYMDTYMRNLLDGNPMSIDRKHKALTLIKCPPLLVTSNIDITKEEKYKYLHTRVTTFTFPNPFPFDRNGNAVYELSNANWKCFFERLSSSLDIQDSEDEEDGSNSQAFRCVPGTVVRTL

Compound | Km ([1]; background statement, measured in the absence of DNA, read-out: Km (ATP) of the HPV-11 E1 ATPase) [µM] | Km ([1]; fit to competitive inhibition, read-out: Km(ATP)) [µM] | Km ([1]; fit to non-competitive inhibition, read-out: Km(ATP)) [µM] | mechanism of inhibition ([1]; comparison of competitive and noncompetitive fits) | Ki(ATP-γ-S) ([1]; fit to non-competitive inhibition (equal binding to enzyme and enzyme-substrate complexes)) [µM] | IC50 [2] [µM]
Nc1ncnc2c1ncn2[C@@H]1O[C@H](COP(=O)(O)OP(=O)(O)OP(=O)(O)O)[C@@H](O)[C@H]1O [ATP] | ~10 | 6.7 ± 0.7 | 12 ± 2 | – | – | –
adenosine-5′-O-(3-thiotriphosphate) [ATP-γ-S] | – | – | – | the competitive model is more appropriate | 16 ± 2 | 8 ± 1.6

Source: patent US6852501B2, “Methods for determining ATPase activity and uses thereof” (Boehringer Ingelheim (Canada) Ltd., priority 1999, dated 2005)
